{"source": "patent US20260248135A1", "about": "“HERBICIDAL COMBINATIONS AND A METHOD FOR CONTROLLING UNDESIRED VEGETATION” (UPL Mauritius Limited, priority 2022, published 2026)", "assay_type_in_all_cases": "in vivo", "key": {"[1]": {"tested_on": "Brachiaria decumbens", "assay": "Post-emergence herbicidal efficacy, Example 3 (L-glufosinate ammonium, saflufenacil and 2,4-D)", "description": "(§1) Methodology: Trials were carried out to evaluate the efficacy of the combination comprising L-glufosinate ammonium and additional herbicides on Brachiaria decumbens weed.\n(§2) The soil used was sandy clay loam-sand: 68.0%; silt: 8.0%; clay: 24.0%.\n(§3) All treatments were in 3 replications per treatment with a spray volume of about 150 L/ha.\n(§4) The expected efficacy of a combination of L-glufosinate ammonium and the other herbicides was calculated using the well-established Colby method. Any difference between the observed and “expected” efficacy could be attributed to synergy between the two compounds.\n(§5) In the Colby method, the expected (or predicted) response of a combination of herbicides is calculated by taking the product of the observed response for each individual component of the combination when applied alone, divided by 100, and subtracting this value from the sum of the observed response for each component when applied alone. An unexpected enhancement in efficacy of the combination is then determined by comparing the observed response of the combination to the expected (or predicted) response as calculated from the observed response of each individual component alone. If the observed response of the combination is greater than the expected (or predicted) response, or stated conversely, if the difference between the observed and expected response is greater than zero, then the combination is said to be synergistic or unexpectedly effective (Colby, S. R., Weeds, 1967 (15), p. 20-22). The Colby method requires only a single dose of each herbicide applied alone and the mixture of both doses. The formula used to calculate the expected efficacy (EE) which was compared with the observed efficacy (OE) to determine the efficacy of the present disclosure is explained hereinbelow:\n(§6) The expected efficacy for a combination of three active ingredients is as follows:\n(§7) wherein, • A=Observed efficacy of active ingredient A at the same concentration as used in the mixture. • B=Observed efficacy of the active ingredient B at the same concentration as used in the mixture. • C=Observed efficacy of the active ingredient C at the same concentration as used in the mixture.\nExperiment was conducted to assess the efficacy of the herbicidal combination comprising L-glufosinate ammonium, saflufenacil and 2,4-D to control the weed Brachiaria decumbens.\nThe target weed was Brachiaria decumbens, and the concentration of the herbicide and the results are recorded in Table 4."}, "[2]": {"tested_on": "Brachiaria decumbens", "assay": "Post-emergence herbicidal efficacy, Example 2 (L-glufosinate ammonium, saflufenacil and triclopyr)", "description": "as §1, §2, §3, §4, §5, §6, §7\nExperiment was conducted to assess the efficacy of the herbicidal combination comprising L-glufosinate ammonium, saflufenacil and triclopyr to control the weed Brachiaria decumbens.\nThe percentage efficacy was calculated after 3, 7, 14, 21, 28 and 35 days of application (DAA). The target weed was Brachiaria decumbens, and the concentration of the herbicide and the results are recorded in Table 3."}, "[3]": {"tested_on": "Brachiaria decumbens", "assay": "Post-emergence herbicidal efficacy, Example 1 (L-glufosinate ammonium and saflufenacil)", "description": "as §1, §2, §3, §4, §5\nThe expected efficacy for a combination of two active ingredients is as follows:\nas §7\nExperiment was conducted to assess the efficacy of the herbicidal combination comprising L-glufosinate ammonium and saflufenacil to control Brachiaria decumbens.\nThe percentage efficacy was calculated after 3, 7, 14, 21, 28 and 35 days of applications (DAA). The target weed was Brachiaria decumbens, and the results are recorded in Table 2."}}}
{"smiles": "O=C(O)COc1ccc(Cl)cc1Cl", "note": "[2,4-D]", "values": [{"measurement": "Observed efficacy (%) of 2,4-D (228 g a.i./ha)", "setting": "[1]; 3 DAA", "result": 0, "unit": "%"}, {"measurement": "Observed efficacy (%) of 2,4-D (228 g a.i./ha)", "setting": "[1]; 7 DAA", "result": 0, "unit": "%"}, {"measurement": "Observed efficacy (%) of 2,4-D (228 g a.i./ha)", "setting": "[1]; 14 DAA", "result": 0, "unit": "%"}, {"measurement": "Observed efficacy (%) of 2,4-D (228 g a.i./ha)", "setting": "[1]; 21 DAA", "result": 0, "unit": "%"}, {"measurement": "Observed efficacy (%) of 2,4-D (228 g a.i./ha)", "setting": "[1]; 28 DAA", "result": 0, "unit": "%"}, {"measurement": "Observed efficacy (%) of 2,4-D (228 g a.i./ha)", "setting": "[1]; 35 DAA", "result": 0, "unit": "%"}]}
{"smiles": "CP(=O)(O)CC[C@H](N)C(=O)O.N", "note": "[L-glufosinate ammonium]", "values": [{"measurement": "Observed efficacy (%) of L-glufosinate ammonium (150 g a.i./ha)", "setting": "[1]; 3 DAA", "result": 65, "unit": "%"}, {"measurement": "Observed efficacy (%) of L-glufosinate ammonium (150 g a.i./ha)", "setting": "[1]; 7 DAA", "result": 75, "unit": "%"}, {"measurement": "Observed efficacy (%) of L-glufosinate ammonium (150 g a.i./ha)", "setting": "[1]; 14 DAA", "result": 75, "unit": "%"}, {"measurement": "Observed efficacy (%) of L-glufosinate ammonium (150 g a.i./ha)", "setting": "[1]; 21 DAA", "result": 70, "unit": "%"}, {"measurement": "Observed efficacy (%) of L-glufosinate ammonium (150 g a.i./ha)", "setting": "[1]; 28 DAA", "result": 65, "unit": "%"}, {"measurement": "Observed efficacy (%) of L-glufosinate ammonium (150 g a.i./ha)", "setting": "[1]; 35 DAA", "result": 60, "unit": "%"}, {"measurement": "Observed efficacy (%) of L-glufosinate ammonium (150 g a.i./ha)", "setting": "[2]; 3 DAA", "result": 65, "unit": "%"}, {"measurement": "Observed efficacy (%) of L-glufosinate ammonium (150 g a.i./ha)", "setting": "[2]; 7 DAA", "result": 75, "unit": "%"}, {"measurement": "Observed efficacy (%) of L-glufosinate ammonium (150 g a.i./ha)", "setting": "[2]; 14 DAA", "result": 75, "unit": "%"}, {"measurement": "Observed efficacy (%) of L-glufosinate ammonium (150 g a.i./ha)", "setting": "[2]; 21 DAA", "result": 70, "unit": "%"}, {"measurement": "Observed efficacy (%) of L-glufosinate ammonium (150 g a.i./ha)", "setting": "[2]; 28 DAA", "result": 65, "unit": "%"}, {"measurement": "Observed efficacy (%) of L-glufosinate ammonium (150 g a.i./ha)", "setting": "[2]; 35 DAA", "result": 60, "unit": "%"}, {"measurement": "Observed efficacy (%) of L-glufosinate ammonium (150 g a.i./ha)", "setting": "[3]; 3 DAA", "result": 65, "unit": "%"}, {"measurement": "Observed efficacy (%) of L-glufosinate ammonium (150 g a.i./ha)", "setting": "[3]; 7 DAA", "result": 75, "unit": "%"}, {"measurement": "Observed efficacy (%) of L-glufosinate ammonium (150 g a.i./ha)", "setting": "[3]; 14 DAA", "result": 75, "unit": "%"}, {"measurement": "Observed efficacy (%) of L-glufosinate ammonium (150 g a.i./ha)", "setting": "[3]; 21 DAA", "result": 70, "unit": "%"}, {"measurement": "Observed efficacy (%) of L-glufosinate ammonium (150 g a.i./ha)", "setting": "[3]; 28 DAA", "result": 60, "unit": "%"}, {"measurement": "Observed efficacy (%) of L-glufosinate ammonium (150 g a.i./ha)", "setting": "[3]; 35 DAA", "result": 55, "unit": "%"}]}
{"smiles": "CC(C)N(C)S(=O)(=O)NC(=O)c1cc(-n2c(=O)cc(C(F)(F)F)n(C)c2=O)c(F)cc1Cl", "note": "[Saflufenacil]", "values": [{"measurement": "Observed efficacy (%) of Saflufenacil (30 g a.i./ha)", "setting": "[1]; 3 DAA", "result": 30, "unit": "%"}, {"measurement": "Observed efficacy (%) of Saflufenacil (30 g a.i./ha)", "setting": "[1]; 7 DAA", "result": 30, "unit": "%"}, {"measurement": "Observed efficacy (%) of Saflufenacil (30 g a.i./ha)", "setting": "[1]; 14 DAA", "result": 20, "unit": "%"}, {"measurement": "Observed efficacy (%) of Saflufenacil (30 g a.i./ha)", "setting": "[1]; 21 DAA", "result": 5, "unit": "%"}, {"measurement": "Observed efficacy (%) of Saflufenacil (30 g a.i./ha)", "setting": "[1]; 28 DAA", "result": 0, "unit": "%"}, {"measurement": "Observed efficacy (%) of Saflufenacil (30 g a.i./ha)", "setting": "[1]; 35 DAA", "result": 0, "unit": "%"}, {"measurement": "Observed efficacy (%) of Saflufenacil (30 g a.i./ha)", "setting": "[2]; 3 DAA", "result": 30, "unit": "%"}, {"measurement": "Observed efficacy (%) of Saflufenacil (30 g a.i./ha)", "setting": "[2]; 7 DAA", "result": 30, "unit": "%"}, {"measurement": "Observed efficacy (%) of Saflufenacil (30 g a.i./ha)", "setting": "[2]; 14 DAA", "result": 20, "unit": "%"}, {"measurement": "Observed efficacy (%) of Saflufenacil (30 g a.i./ha)", "setting": "[2]; 21 DAA", "result": 5, "unit": "%"}, {"measurement": "Observed efficacy (%) of Saflufenacil (30 g a.i./ha)", "setting": "[2]; 28 DAA", "result": 0, "unit": "%"}, {"measurement": "Observed efficacy (%) of Saflufenacil (30 g a.i./ha)", "setting": "[2]; 35 DAA", "result": 0, "unit": "%"}, {"measurement": "Observed efficacy (%) of Saflufenacil (30 g a.i./ha)", "setting": "[3]; 3 DAA", "result": 30, "unit": "%"}, {"measurement": "Observed efficacy (%) of Saflufenacil (30 g a.i./ha)", "setting": "[3]; 7 DAA", "result": 30, "unit": "%"}, {"measurement": "Observed efficacy (%) of Saflufenacil (30 g a.i./ha)", "setting": "[3]; 14 DAA", "result": 25, "unit": "%"}, {"measurement": "Observed efficacy (%) of Saflufenacil (30 g a.i./ha)", "setting": "[3]; 21 DAA", "result": 10, "unit": "%"}, {"measurement": "Observed efficacy (%) of Saflufenacil (30 g a.i./ha)", "setting": "[3]; 28 DAA", "result": 0, "unit": "%"}, {"measurement": "Observed efficacy (%) of Saflufenacil (30 g a.i./ha)", "setting": "[3]; 35 DAA", "result": 0, "unit": "%"}]}
{"smiles": "O=C(O)COc1nc(Cl)c(Cl)cc1Cl", "note": "[Triclopyr]", "values": [{"measurement": "Observed efficacy (%) of Triclopyr (228 g a.i./ha)", "setting": "[2]; 3 DAA", "result": 0, "unit": "%"}, {"measurement": "Observed efficacy (%) of Triclopyr (228 g a.i./ha)", "setting": "[2]; 7 DAA", "result": 0, "unit": "%"}, {"measurement": "Observed efficacy (%) of Triclopyr (228 g a.i./ha)", "setting": "[2]; 14 DAA", "result": 20, "unit": "%"}, {"measurement": "Observed efficacy (%) of Triclopyr (228 g a.i./ha)", "setting": "[2]; 21 DAA", "result": 10, "unit": "%"}, {"measurement": "Observed efficacy (%) of Triclopyr (228 g a.i./ha)", "setting": "[2]; 28 DAA", "result": 5, "unit": "%"}, {"measurement": "Observed efficacy (%) of Triclopyr (228 g a.i./ha)", "setting": "[2]; 35 DAA", "result": 0, "unit": "%"}]}
